Measurements as given in patent US20230301969A1, “DOSING SCHEDULE FOR A METHOD OF TREATMENT WITH DHODH INHIBITORS” (Bayer Aktiengesellschaft, priority 2020, published 2023).
Entries after “also recorded” stand apart in the source; their conditions may differ. Where two headings read alike, the source gives them in different places.

Assays:
[1] = system: acute myeloid leukemia xenograft model THP1; test: AML THP1 subcutaneous xenograft, tumor volume; format: in vivo, SCID mice; conditions: start day 16, 7 days of treatment
Description: (§1) Tumor cells were injected subcutaneously into the flank of the mice. Treatment was initiated at a predefined tumor size after cell inoculation. BAY 2402234 was applied orally (p.o.) at various dose levels and schedules (daily or intermittent). BAY 2402234 was prepared in solution in PEG400/ETOH 9/1. Animal body weight during the study was monitored at least twice weekly. Subcutaneous tumors were measured with a caliper (length and width) at least twice a week, depending on the doubling time of the tumor. Values are presented as volume. Efficacy was calculated on a specific day according to the formula: T/C (treatment/control ratio)=(mean tumor volume from the treated group/mean tumor volume from the vehicle group). Tumor volume was calculated using (width^2×length)/2.
(§2) AML THP1 cells were inoculated in the flank of SCID mice and 16 days after implantation tumors were measured and animals were randomized at an average tumor volume of around 100 mm^3. Treatment with DHODH Inhibitor BAY2402234 was started at time of randomization. Either daily dosing of 5 mg/kg or 10 mg/kg at a 4 days on/3 days off schedule was used and the drug was given orally in 90/10 PEG400/EtOH formulation. […] The daily dosing sums up to a total weekly dose of 35 mg/kg, while the 4 days on/3 days off schedule sums up to a 40 mg/kg weekly dose.

[2] = system: Mantle cell lymphoma xenograft model Z138; test: Mantle cell lymphoma Z138 subcutaneous xenograft, tumor volume; format: in vivo, SCID mice; conditions: start day 20
Description: as §1
Mantle Cell Lymphoma Z138 cells were inoculated in the flank of SCID mice and 20 days after implantation tumors were measured and animals were randomized at an average tumor volume of around 100 mm^3. Treatment with DHODH Inhibitor BAY 2402234 was started at time of randomization. Either daily dosing of 5 mg/kg or 10 mg/kg at a 4 days on/3 days off schedule or 5 mg/kg at a 5 days on 2 days off was used and the drug was given orally in 90/10 PEG400/EtOH formulation. The daily dosing sums up to a total weekly dose of 35 mg/kg, while the 4 days on/3 days off schedule sums up to a 40 mg/kg weekly dose and the 5 days on 2 days off sums up to 25 mg/kg weekly dose.

[3] = system: colorectal cancer xenograft model HT29; test: Colorectal cancer HT29 subcutaneous xenograft, tumor volume; format: in vivo, mice; conditions: start day 9
Description: as §1
(§3) Colorectal cancer cells were inoculated in the flank of mice and 9 days after implantation tumors were measured and animals were randomized at an average tumor volume of around 80 mm^3. Treatment with DHODH Inhibitor BAY2402234 was started at time of randomization. Either daily dosing of 5 mg/kg or 10 mg/kg at a 5 days on/2 days off schedule or 5 mg/kg at a 5 days on 2 days off was used and the drug was given orally in 90/10 PEG400/EtOH formulation. The daily dosing sums up to a total weekly dose of 35 mg/kg, while the 5 days on/2 days off schedule sums up to a 50 or a 25 mg/kg weekly dose respectively.

[4] = Body weight of animals in the HT29 xenograft model (tolerability); format: in vivo, mice; conditions: for body weight / tolerability: 5 mg/kg p.o. 5 days on/2 days off, course of the experiment
Description: as §1, §3

[5] = mouse, in vivo
Description: as §2

solid cancer = conditions: weekly doses or 5 days on 23 days off schedule, cited from earlier work
[6] = 5 mg/kg p.o. daily (35 mg/kg weekly)
[7] = 10 mg/kg p.o. 4 days on/3 days off (40 mg/kg weekly)
[8] = 5 mg/kg p.o. 5 days on/2 days off (25 mg/kg weekly)

Compound	development of tumor volume / efficacy [1, 6]	development of tumor volume / efficacy [1, 7]	development of tumor volume / efficacy [2, 8]	development of tumor volume / efficacy [2, 6]	development of tumor volume / efficacy [2, 7]	development of tumor volume / efficacy [3, 8]	development of tumor volume / efficacy ([3]; 5 mg/kg p.o. 5 days on/2 days off (25 mg/kg weekly), listed as BAY2402234)	development of tumor volume / efficacy [3, 6]	development of tumor volume / efficacy ([3]; 5 mg/kg p.o. daily (35 mg/kg weekly), listed as BAY2402234)	development of tumor volume / efficacy ([3]; 10 mg/kg p.o. 5 days on/2 days off (50 mg/kg weekly))	development of tumor volume / efficacy ([3]; 10 mg/kg p.o. 5 days on/2 days off (50 mg/kg weekly), listed as BAY2402234)	body weight / tolerability [4]	body weight / tolerability ([4]; listed as BAY2402234)	body weight loss ([4]; 5 mg/kg p.o. daily, at experiments end)	body weight loss ([4]; 10 mg/kg p.o. 5 days on/2 days off, at the end of the experiment)	dose relative to maximal tolerated dose [5]	clinical activity in solid cancer indications (solid cancer)	clinical activity in solid cancer indications (solid cancer; listed as Brequinar sodium)
CCn1c(CO)nn(-c2cc(O[C@@H](C)C(F)(F)F)c(C(=O)Nc3c(F)cccc3Cl)cc2F)c1=O [BAY 2402234, N-(2-chloro-6-fluorophenyl)-4-[4-ethyl-3-(hydroxymethyl)-5-oxo-4,5-dihydro-1H-1,2,4-triazol-1-yl]-5-fluoro-2-{[(2S)-1,1,1-trifluoropropan-2-yl]oxy}benzamide]	stable disease	stable disease	shrinkage of the tumors; also recorded: tumor regression	shrinkage of the tumors; also recorded: tumor regression	shrinkage of the tumors; also recorded: tumor regression	tumor growth inhibition	tumor growth delay	tumor growth inhibition	tumor growth delay	tumor growth inhibition; also recorded: slightly stronger	tumor growth delay; also recorded: slightly more efficacious	relative constant bodyweight	best tolerated	above 10%	around 4%	close to the maximal tolerated dose		
Cc1c(-c2ccc(-c3ccccc3F)cc2)nc2ccc(F)cc2c1C(=O)O [Brequinar, 6-fluoro-2-(2′-fluoro-[1,1′-biphenyl]-4-yl)-3-methylquinoline-4-carboxylic acid]																	failed to show sufficient clinical activity	ineffective
